Laboratory results: ChEMBL document CHEMBL5608195, “Identification and biological evaluation of fused tetrahydroisoquinoline derivatives as Wnt/β-catenin signaling inhibitors to suppress colorectal cancer” (Eur J Med Chem, 2024)
The source made the active and inactive calls. The calls are words filed in the database; no cut-off is given here.

How the values were obtained:
[1] = Half life in male ICR (CD-1) mouse at 5 mg/kg, iv measured upto 24 hrs by LC-MS/MS analysis; type: ADME, organism-based; settings: in vivo
RKO [2] = assay: Antiproliferative activity against human RKO cells assessed as inhibition of DNA proliferation at 10 uM incubated for 22 hrs by fluorescence based microscopic analysis; type: functional, cell-based
HCT-116 [3] = assay: Antiproliferative activity against human HCT-116 cells assessed as inhibition of DNA replication at 10 uM incubated for 22 hrs by fluorescence based microscopic analysis; type: functional, cell-based
HCT-116 [4] = assay: Antiproliferative activity against human HCT-116 cells assessed as inhibition rate at 20 uM incubated for 24 hrs by MTT assay relative to control; type: functional
HCT-116 [5] = assay: Antiproliferative activity against human HCT-116 cells incubated for 24 hrs by MTT assay; type: functional, cell-based; settings: HCT-116, 24 h
RKO [6] = assay: Antiproliferative activity against human RKO cells incubated for 24 hrs by MTT assay; type: functional, cell-based
[7] = Half life in male ICR (CD-1) mouse at 20 mg/kg, po measured upto 24 hrs by LC-MS/MS analysis; type: ADME, organism-based; settings: in vivo
[8] = AUC (0 to infinity) in male ICR (CD-1) mouse at 20 mg/kg, po measured upto 24 hrs by LC-MS/MS analysis; type: ADME, organism-based; settings: in vivo
[9] = Tmax in male ICR (CD-1) mouse at 10 mg/kg, ip measured upto 24 hrs by LC-MS/MS analysis; type: ADME, organism-based; settings: in vivo
[10] = Half life in male ICR (CD-1) mouse at 10 mg/kg, ip measured upto 24 hrs by LC-MS/MS analysis; type: ADME, organism-based; settings: in vivo
[11] = AUC (0 to infinity) in male ICR (CD-1) mouse at 5 mg/kg, iv measured upto 24 hrs by LC-MS/MS analysis; type: ADME, organism-based; settings: in vivo
[12] = Clearance in male ICR (CD-1) mouse at 5 mg/kg, iv measured upto 24 hrs by LC-MS/MS analysis; type: ADME, organism-based; settings: in vivo
HCT-116 [13] = assay: Antiproliferative activity against human HCT-116 cells assessed as inhibition of DNA proliferation at 10 uM incubated for 22 hrs by fluorescence based microscopic analysis; type: functional, cell-based
RKO [14] = assay: Antiproliferative activity against human RKO cells assessed as inhibition of DNA replication at 10 uM incubated for 22 hrs by fluorescence based microscopic analysis; type: functional, cell-based
HCT-116 [15] = assay: Inhibition of colony formation in human HCT-116 cells incubated for 24 hrs by crystal violet staining based analysis; type: functional, cell-based; settings: dose 6-10 µM
RKO [16] = assay: Inhibition of colony formation human RKO cells incubated for 24 hrs by crystal violet staining based analysis; type: functional, cell-based; settings: dose 6-10 µM
HCT-116 [17] = assay: Induction of cell cycle arrest in human HCT-116 cells assessed as downregulation of Cyclin B1 protein level by Western blot analysis; type: functional, cell-based
RKO [18] = assay: Induction of cell cycle arrest in human RKO cells assessed as downregulation of Cyclin B1 protein level by Western blot analysis; type: functional, cell-based
HCT-116 [19] = assay: Induction of cell cycle arrest in human HCT-116 cells assessed as downregulation of Cyclin A2 protein level by Western blot analysis; type: functional, cell-based
RKO [20] = assay: Induction of cell cycle arrest in human RKO cells assessed as upregulation of P21 protein level by Western blot analysis; type: functional, cell-based
HCT-116 [21] = assay: Inhibition of Wnt/beta-catenin signaling pathway in human HCT-116 cells assessed as induction of beta-catenin degradation pretreated with cycloheximide followed by compound addition by Western blot analysis; type: cell-based; settings: time <= 6.0 hrs, TDE = time-dependent effect
[22] = Toxicity in Kunming mouse assessed as drug tolerance at 200 to 400 mg/kg, ip; type: organism-based; settings: in vivo, dose 200-400 mg/kg
[23] = biological target: T1, Heat shock protein HSP90 (Homo sapiens) (UniProt P07900+P08238); assay: Induction of thermal stabilization of Hsp90 in human HCT-116 cells at 37 to 82 degree C at 100 uM incubated for 1 hr by thermal shift assay; type: cell-based
[24] = biological target: T1, Heat shock protein HSP90 (Homo sapiens); assay: Induction of thermal stabilization of Hsp90 in human RKO cells at 37 to 82 degree C at 100 uM incubated for 1 hr by thermal shift assay; type: cell-based
Homo sapiens = species: Homo sapiens; assay: Binding affinity to recombinant N-terminal GST-tagged human HSP90 (1 to 224 residues) extracted from Escherichia coli BL21 (DE3) cells at 200 uM in presence of biotin probe 1 by pulldown analysis
[25] = Toxicity in male BALB/c mouse xenografted with human HCT-116 cells assessed as effect on serum AST level at 10 to 40 mg/kg, ip by biochemical analysis; type: organism-based; settings: in vivo, dose 10-40 mg/kg
[26] = Toxicity in male BALB/c mouse xenografted with human HCT-116 cells assessed as histological change in spleen at 10 to 40 mg/kg, ip by H and E staining based optical microscopic analysis; type: organism-based; settings: in vivo, dose 10-40 mg/kg
[27] = Toxicity in male BALB/c mouse xenografted with human HCT-116 cells assessed as histological change in lung at 10 to 40 mg/kg, ip by H and E staining based optical microscopic analysis; type: organism-based; settings: in vivo, dose 10-40 mg/kg
[28] = Toxicity in male BALB/c mouse xenografted with human HCT-116 cells assessed as histological change in kidney at 10 to 40 mg/kg, ip by H and E staining based optical microscopic analysis; type: organism-based; settings: in vivo, dose 10-40 mg/kg
[29] = Toxicity in male BALB/c mouse xenografted with human HCT-116 cells assessed as effect on body weight at 10 to 40 mg/kg, ip measured every two days for upto 20 days; type: organism-based; settings: in vivo, 480 h, dose 10-40 mg/kg, time < 20 day
RKO [30] = assay: Inhibition of Hsp90/beta-catenin in human RKO cells at 6 to 10 uM incubated for 24 hrs by co-immunoprecipitation analysis; type: cell-based; settings: dose 6-10 µM

Question: For CC12c3ccc(Cl)cc3CCN1CCc1c2[nH]c2ccc(Cl)cc12 (stereo unspecified), which half-life [1] is on record?
Answer: Its half-life is 1.42 h.

Question: What about the Activity (RKO [2]) of the same compound?
Answer: Its Activity is “Active”.

Question: And the Activity (HCT-116 [3])?
Answer: Its Activity is “Active”.

Question: What about the inhibition at 20 µM (HCT-116 [4]) of the same compound?
Answer: The inhibition at 20 µM was 89.2%.

Question: What about the IC50 (HCT-116 [5]) of the same compound?
Answer: The IC50 was 8.31 µM.

Question: What about the IC50 (RKO [6]) of the same compound?
Answer: Its IC50 is 7.97 µM.

Question: What about the half-life [7] of the same compound?
Answer: Its half-life is 2.6 h.

Question: And the AUC(0-inf) [8]?
Answer: The AUC(0-inf) was 2720 ng·h/mL.

Question: What about the Tmax [9] of the same compound?
Answer: The Tmax was 0.25 h.

Question: What about the half-life [10] of the same compound?
Answer: The half-life was 3.55 h.

Question: What about the AUC(0-inf) [11] of the same compound?
Answer: The AUC(0-inf) was 1500 ng·h/mL.

Question: What about the clearance [12] of the same compound?
Answer: Its clearance is 56.1 mL/min/kg.

Question: And the Activity (HCT-116 [13])?
Answer: Its Activity is “Active”.

Question: And the Activity (RKO [14])?
Answer: The Activity was “Active”.

Question: What about the inhibition (HCT-116 [15]) of the same compound?
Answer: The inhibition was “Dose-Dependent Effect”.

Question: And the inhibition (RKO [16])?
Answer: Its inhibition is “Dose-Dependent Effect”.

Question: What about the Activity (HCT-116 [17]) of the same compound?
Answer: Its Activity is “Dose-Dependent Effect”.

Question: And the Activity (RKO [18])?
Answer: Its Activity is “Dose-Dependent Effect”.

Question: What about the Activity (HCT-116 [19]) of the same compound?
Answer: The Activity was “Dose-Dependent Effect”.

Question: And the Activity (RKO [20])?
Answer: Its Activity is “Dose-Dependent Effect”.

Question: What about the inhibition (HCT-116 [21]) of the same compound?
Answer: The inhibition was “Tde”.

Question: What about the Activity [22] of the same compound?
Answer: The Activity was “Non-Toxic”.

Question: What about the Activity [23] of the same compound?
Answer: The Activity was “Active”.

Question: And the Activity [24]?
Answer: Its Activity is “Active”.

Question: What about the Activity (Homo sapiens) of the same compound?
Answer: The Activity was “Active”.

Question: What about the Activity [25] of the same compound?
Answer: The Activity was “Non-Toxic”.

Question: And the Activity [26]?
Answer: Its Activity is “Non-Toxic”.

Question: And the Activity [27]?
Answer: Its Activity is “Non-Toxic”.

Question: And the Activity [28]?
Answer: Its Activity is “Non-Toxic”.

Question: And the Activity [29]?
Answer: The Activity was “Non-Toxic”.

Question: What about the inhibition (RKO [30]) of the same compound?
Answer: Its inhibition is “Dose-Dependent Effect”.
